Where “and” joins values, the source holds several entries; their conditions need not be identical. Identical values can stand only once. Like-named read-outs stand apart in the source and are kept apart here.
How the values were obtained:
[1] = target: T1, recombinant human CD1d ectodomain/β2m complex (hCD1d) (Homo sapiens, UniProt P15813); test: Intrinsic tryptophan fluorescence (ITF) binding assay
T1 construct: TEV protease cleavage site ENLYFQS (C); BirA biotinylation site (C); His7 (C); made in house; host or cells: TurboCHO cells (GenScript)
Description: (§1) For ITF assays, the concentration of hCD1d was kept constant, and intrinsic Trp fluorescence (excitation at 285 nm, emission at 335 nm) was measured as a function of increasing detergent concentration (Fossum et al., [2023]) (Figure S2). The change in relative fluorescence intensity (F − F 0/F 0) provides an indication of binding. […] This was due to limited detergent solubility and decreased hCD1d stability in the presence of a large excess of detergent (see below). […] SDS was the exception, for which Trp fluorescence of hCD1d decreased with added detergent. This could indicate a unique conformational change or destabilization of the protein.
(§2) ITF spectra were recorded from 300 to 500 nm using a Horiba FL3‐21 Fluorometer with the excitation wavelength of 285 nm and excitation/emission slits of 6.2 nm. Fluorescence spectra of 50 to 100 nM hCD1d were acquired in the absence and presence of detergents in 1X PBS pH 7.4 at 25°C. Prior to data acquisition, hCD1d and detergent or lipid samples were incubated at 37°C overnight (~12 h) to simulate in vitro and in vivo loading conditions. […] For 18:1 LPC experiments, fluorescence spectra of 100 nM hCD1d were acquired in the absence and presence of 18:1 LPC in 1X PBS pH 7.4 at 25°C. […] For all ITF experiments, the change in fluorescence signal (F − F 0/F 0) was determined at 335 nm. Three replicates were performed, and data are presented as the mean ± standard deviation (n = 3). K D values were fitted with non‐linear regression in GraphPad Prism v10.1.

[2] = target: T2, recombinant human CD1d ectodomain/β2m complex (hCD1d) (Homo sapiens, UniProt P15813+P61769); test: as above
T2 construct: TEV protease cleavage site ENLYFQS (C); BirA biotinylation site (C); His7 (C); made in house; host or cells: TurboCHO cells (GenScript)
Description: as §1, §2

AF647‐labeled hCD1d [3] = target: T3, AF647‐labeled hCD1d (Homo sapiens, UniProt P15813); test: Microscale thermophoresis (MST) binding assay
T3 construct: TEV protease cleavage site ENLYFQS (C); BirA biotinylation site (C); His7 (C); made in house; host or cells: TurboCHO cells (GenScript)
Method in brief: (§3)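 hCD1d was NHS-labeled with AF647 (~75% labeling) and held at 100 nM against rising detergent or 18:1 LPC in PBS pH 7.4. Samples were preincubated at 37°C overnight (~12 h) and read at 25°C with 20 s IR-on time. Data are mean ± SD, n = 3.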

AF647‐labeled hCD1d [4] = target: T4, AF647‐labeled hCD1d (Homo sapiens, UniProt P15813+P61769); test: Microscale thermophoresis (MST) binding assay
T4 construct: TEV protease cleavage site ENLYFQS (C); BirA biotinylation site (C); His7 (C); made in house; host or cells: TurboCHO cells (GenScript)
Method in brief: as §3

[5] = approximate, cited from earlier work
[6] = ITF - Kd (uM) average, Figure 5A, detergent binding to hCD1d
[7] = 0.001 M detergent, 100 nM hCD1d
[8] = K D (MST), detergent with 100 nM AF647‐labeled hCD1d, 25°C, apparent
[9] = MST - Kd (uM) average, Figure 5B, detergent binding to hCD1d
[10] = 0.001 M detergent, 100 nM AF647‐hCD1d
[11] = weight/volume, ref Anatrace catalogue
[12] = detergent with 100 nM hCD1d, 25°C, 1X PBS pH 7.4, apparent, read-out: K D (ITF)
[13] = Figure 5B, detergent binding to hCD1d, read-out: MST - Kd (uM) average
[14] = detergent with 100 nM AF647‐labeled hCD1d, 25°C, apparent, read-out: K D (MST)

T4 sequence (P61769+P15813 fused): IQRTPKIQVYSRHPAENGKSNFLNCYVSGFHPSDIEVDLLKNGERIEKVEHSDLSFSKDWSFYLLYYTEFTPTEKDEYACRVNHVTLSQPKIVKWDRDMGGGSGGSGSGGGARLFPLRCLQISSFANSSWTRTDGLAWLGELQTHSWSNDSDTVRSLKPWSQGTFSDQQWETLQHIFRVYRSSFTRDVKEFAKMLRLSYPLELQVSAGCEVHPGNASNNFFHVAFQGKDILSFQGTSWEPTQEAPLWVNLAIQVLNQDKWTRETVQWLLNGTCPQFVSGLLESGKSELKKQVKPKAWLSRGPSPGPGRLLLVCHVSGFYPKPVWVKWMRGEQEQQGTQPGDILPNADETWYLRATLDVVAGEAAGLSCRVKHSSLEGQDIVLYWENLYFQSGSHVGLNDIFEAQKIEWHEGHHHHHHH
T2 sequence (P61769+P15813 fused): as above
T1 sequence (P15813 whole entry, looked up, the tested form may be a part, one chain of several): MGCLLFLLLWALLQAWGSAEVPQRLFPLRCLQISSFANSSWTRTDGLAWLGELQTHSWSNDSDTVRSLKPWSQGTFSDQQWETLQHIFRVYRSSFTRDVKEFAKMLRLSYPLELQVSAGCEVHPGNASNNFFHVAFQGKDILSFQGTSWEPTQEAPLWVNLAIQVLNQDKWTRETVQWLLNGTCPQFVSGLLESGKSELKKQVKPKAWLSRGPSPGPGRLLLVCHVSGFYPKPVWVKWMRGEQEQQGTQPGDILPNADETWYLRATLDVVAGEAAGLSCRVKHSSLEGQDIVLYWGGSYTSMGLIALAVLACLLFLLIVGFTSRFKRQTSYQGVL
T3 sequence (P15813 whole entry, looked up): as the sequence (P15813 whole entry, looked up, the tested form may be a part, one chain of several) above

Compound | Kd [1, 6] | F-F0/F0 (rep 1-3) ([2]; 3.0518e-8 M detergent) | F-F0/F0 (rep 1-3) [2, 7] | Fnorm (rep 1-3) (AF647‐labeled hCD1d [4]; 4.88281e-7 M detergent) | Fnorm (rep 1-3) (AF647‐labeled hCD1d [4]; 9.76563e-7 M detergent) | Fnorm (rep 1-3) (AF647‐labeled hCD1d [4]; 1.95313e-6 M detergent) | Fnorm (rep 1-3) (AF647‐labeled hCD1d [4]; 3.90625e-6 M detergent) | Fnorm (rep 1-3) (AF647‐labeled hCD1d [4]; 7.8125e-6 M detergent) | Fnorm (rep 1-3) (AF647‐labeled hCD1d [4]; 1.5625e-5 M detergent) | Fnorm (rep 1-3) (AF647‐labeled hCD1d [4]; 3.125e-5 M detergent) | Fnorm (rep 1-3) (AF647‐labeled hCD1d [4]; 6.25e-5 M detergent) | Fnorm (rep 1-3) (AF647‐labeled hCD1d [4]; 0.000125 M detergent) | Fnorm (rep 1-3) (AF647‐labeled hCD1d [4]; 0.00025 M detergent) | Fnorm (rep 1-3) (AF647‐labeled hCD1d [4]; 0.0005 M detergent) | Fnorm (rep 1-3) (AF647‐labeled hCD1d [4]; [10]) | binding to hCD1d by ITF (in words) [2] | Fnorm (rep 1-3) (AF647‐labeled hCD1d [4]; 3.05176e-8 M detergent) | Fnorm (rep 1-3) (AF647‐labeled hCD1d [4]; 6.10352e-8 M detergent) | Fnorm (rep 1-3) (AF647‐labeled hCD1d [4]; 1.2207e-7 M detergent) | Fnorm (rep 1-3) (AF647‐labeled hCD1d [4]; 2.44141e-7 M detergent) | further results
CCCCCCCCCCCCCCCC[N+](C)(C)C [CTAB, hexadecyltrimethylammonium bromide] | 41.5 µM | 0 | 1.83 and 1.56 and 1.71 | 812.075 ‰ and 810.216 ‰ and 807.19 ‰ | 814.18 ‰ and 810.332 ‰ and 807.136 ‰ | 814.445 ‰ and 813.166 ‰ and 810.178 ‰ | 815.986 ‰ and 818.175 ‰ and 815.532 ‰ | 824.731 ‰ and 823.149 ‰ and 822.329 ‰ | 835 ‰ and 828.362 ‰ and 831.779 ‰ | 849.376 ‰ and 847.531 ‰ and 847.477 ‰ | 858.509 ‰ and 854.12 ‰ and 851.197 ‰ | 844.143 ‰ and 841.907 ‰ and 839.82 ‰ | 844.455 ‰ and 843.492 ‰ and 841.952 ‰ | 845.737 ‰ and 843.294 ‰ and 845.557 ‰ | 845.54 ‰ and 843.477 ‰ and 843.19 ‰ |  |  |  |  |  | Kd ([1]; K D (ITF), detergent with 100 nM hCD1d, 25°C, 1X PBS pH 7.4, apparent): 41.5 ± 6.5 µM; F-F0/F0 (rep 1-3) ([2]; 3.125e-5 M detergent): 0.613 and 0.517 and 0.672; F-F0/F0 (rep 1-3) ([2]; 6.25e-5 M detergent): 0.966 and 1.08 and 1.22; F-F0/F0 (rep 1-3) ([2]; 0.000125 M detergent): 1.45 and 1.3 and 1.29; F-F0/F0 (rep 1-3) ([2]; 0.00025 M detergent): 1.44 and 1.52 and 1.46; F-F0/F0 (rep 1-3) ([2]; 0.0005 M detergent): 1.55 and 1.65 and 1.44; Kd (AF647‐labeled hCD1d [3]; [8]): 10.9 ± 1.2 µM; Kd (AF647‐labeled hCD1d [3]; [9]): 10.9 µM; CMC ([5]; ref Sigma Aldrich catalogue): 920 µM; CMC ([5]; weight/volume, ref Sigma Aldrich catalogue): 0.033%
C[C@H](CCC(=O)NCCC[N+](C)(C)CCCS(=O)(=O)[O-])[C@H]1CC[C@H]2[C@@H]3[C@H](O)C[C@@H]4C[C@H](O)CC[C@]4(C)[C@H]3C[C@H](O)[C@]12C [CHAPS, 3‐((3‐cholamidopropyl) dimethylammonio)‐1‐propanesulfonate] | 269 µM | 0 | 0.1904 and 0.2276 and 0.116 | 790.852 ‰ and 792.443 ‰ and 789.72 ‰ | 790.963 ‰ and 791.166 ‰ and 789.816 ‰ | 790.601 ‰ and 790.682 ‰ and 790.374 ‰ | 791.182 ‰ and 790.338 ‰ and 790.7 ‰ | 792.893 ‰ and 791.581 ‰ and 790.149 ‰ | 792.783 ‰ and 794.481 ‰ and 793.14 ‰ | 797.777 ‰ and 796.648 ‰ and 796.885 ‰ | 802.833 ‰ and 802.212 ‰ and 800.436 ‰ | 807.041 ‰ and 807.203 ‰ and 808.474 ‰ | 810.973 ‰ and 810.93 ‰ and 810.716 ‰ | 814.652 ‰ and 812.289 ‰ and 815.372 ‰ | 815.189 ‰ and 817.537 ‰ and 819.368 ‰ | observable binding | 790.173 ‰ and 791.465 ‰ and 791.791 ‰ | 791.241 ‰ and 791.286 ‰ and 792.264 ‰ | 790.851 ‰ and 791.968 ‰ and 791.334 ‰ | 791.909 ‰ and 789.682 ‰ and 791.374 ‰ | Kd ([2]; read-out: K D (ITF), detergent with 100 nM hCD1d, 25°C, 1X PBS pH 7.4, apparent): < 400 µM; Kd (AF647‐labeled hCD1d [3]; [8]): < 200 µM; Kd (AF647‐labeled hCD1d [3]; [9]): 90.4 µM; CMC ([5]; ref Anatrace catalogue): 8000 µM; CMC [5, 11]: 0.49%
CCCCCCCCCCCC[N+](C)(C)[O-] [LDAO, lauryldimethylamine‐N‐oxide] |  | 0 | 0.4171 and 0.3604 and 0.4782 | 815.87 ‰ and 817.501 ‰ and 814.61 ‰ | 819.746 ‰ and 816.532 ‰ and 815.008 ‰ | 821.408 ‰ and 818.645 ‰ and 816.968 ‰ | 814.412 ‰ and 819.336 ‰ and 814.062 ‰ | 818.471 ‰ and 817.826 ‰ and 814.305 ‰ | 818.754 ‰ and 820.576 ‰ and 816.619 ‰ | 825.871 ‰ and 823.407 ‰ and 821.261 ‰ | 827.8 ‰ and 827.022 ‰ and 819.019 ‰ | 840.896 ‰ and 830.059 ‰ and 833.855 ‰ | 853.04 ‰ and 842.052 ‰ and 840.306 ‰ | 856.938 ‰ and 859.889 ‰ and 860.509 ‰ | 853.851 ‰ and 856.381 ‰ and 852.289 ‰ | observable binding | 814.692 ‰ and 814.467 ‰ and 814.489 ‰ | 817.057 ‰ and 815.567 ‰ and 813.955 ‰ | 815.153 ‰ and 815.733 ‰ and 813.219 ‰ | 820.838 ‰ and 814.573 ‰ and 816.312 ‰ | Kd [1, 12]: > 10000 µM; F-F0/F0 (rep 1-3) ([2]; 1.2207e-7 M detergent): 0.07548 and 0.05543 and 0.06384; F-F0/F0 (rep 1-3) ([2]; 4.8828e-7 M detergent): 0.06847 and 0.06205 and 0.06021; F-F0/F0 (rep 1-3) ([2]; 0.00025 M detergent): 0.1026 and 0.1076 and 0.1826; Kd (AF647‐labeled hCD1d [3]; [13]): 157 µM; Kd (AF647‐labeled hCD1d [3]; [14]): 157 ± 58.6 µM; CMC ([5]; ref Anatrace catalogue): 1000 µM; CMC [5, 11]: 0.023%
C[C@H](CCC(=O)O)[C@H]1CC[C@H]2[C@@H]3CC[C@@H]4C[C@H](O)CC[C@]4(C)[C@H]3C[C@H](O)[C@]12C [Deoxycholate, sodium deoxycholate] |  |  |  | 795.887 ‰ and 794.029 ‰ and 796.702 ‰ | 796.103 ‰ and 795.392 ‰ and 796.86 ‰ | 795.057 ‰ and 792.832 ‰ and 795.608 ‰ | 796.418 ‰ and 796.702 ‰ and 795.904 ‰ | 795.548 ‰ and 798.002 ‰ and 797.636 ‰ | 795.128 ‰ and 798.849 ‰ and 799.048 ‰ | 798.119 ‰ and 798.444 ‰ and 799.423 ‰ | 800.962 ‰ and 799.886 ‰ and 803.305 ‰ | 801.785 ‰ and 804.744 ‰ and 805.19 ‰ | 804.206 ‰ and 807.083 ‰ and 805.968 ‰ | 808.515 ‰ and 808.171 ‰ and 806.841 ‰ | 814.33 ‰ and 809.551 ‰ and 810.963 ‰ | No significant binding | 795.701 ‰ and 796.724 ‰ and 797.98 ‰ | 794.625 ‰ and 796.029 ‰ and 797.315 ‰ | 793.156 ‰ and 796.701 ‰ and 795.845 ‰ | 795.335 ‰ and 795.616 ‰ and 795.028 ‰ | Kd [1, 12]: > 10000 µM; Kd (AF647‐labeled hCD1d [3]; [13]): 103 µM; Kd (AF647‐labeled hCD1d [3]; [14]): > 10000 µM; binding to hCD1d by MST (in words) (AF647‐labeled hCD1d [4]): observable binding

Reference: publication PMC12720774, “Detergents alter the stability and lipid binding properties of the CD1d immunoreceptor” (Protein Science : A Publication of the Protein Society, 2025)
